Source: publication PMC3704224 (Analytical chemistry, 2013)

How the values were obtained:
PTPN1 = conditions: read-out: IC50, PTPN1 inhibition (previous reports); cited from earlier work
PTPN2 = conditions: read-out: KM for PTPN2; cited from earlier work
[1] = test system: PTP activity in single A431 cells; assay: Single A431 cell PTP activity; assay type: cell-based, human; conditions: single A431 cells pretreated with 1 mM; Q1 = 36%, Q3 = 77%

| Compound | IC50 (PTPN1) | Km (PTPN2) | median phosphorylation remaining in 60 s (inhibition of dephosphorylation) [1] |
| --- | --- | --- | --- |
| O=C1C=Cc2ccccc2C1=O [1,2-naphthoquinone] | 1.6 to 5 µM | – | – |
| N[C@@H](Cc1ccc(OP(=O)(O)O)cc1)C(=O)O [phosphotyrosine] | – | 300 µM | – |
| sodium pervanadate | 0.4 µM | – | 53% |
